# Measurements taken from ChEMBL document CHEMBL4000166, “Stachybotrysin, an Osteoclast Differentiation Inhibitor from the Marine-Derived Fungus Stachybotrys sp. KCB13F013” (J Nat Prod, 2016).
# Active and inactive are the calls of the source. The calls are words filed in the database; no cut-off is given here.
# Key:
# [1] = system: BMMC; test: Inhibition of M-CSF/RANKL-induced osteoclast differentiation in mouse BMMC after 4 days by TRAP staining method; format: functional, cell-based
# [2] = species on record: Mus musculus; test: Inhibition of M-CSF/RANKL-induced JNK phosphorylation in mouse BMMC at 5 ug/ml preincubated with M-CSF for 6 mins followed by RANKL addition measured after 5 mins by Western blot method
# [3] = target: T1, NF-kappa-B inhibitor alpha (Mus musculus) (UniProt Q9Z1E3); test: Effect on IkappaBalpha phosphorylation in mouse BMMC at 5 ug/ml preincubated with M-CSF for 6 mins followed by RANKL addition measured after 5 to 30 mins by Western blot method
# T1 sequence (whole entry): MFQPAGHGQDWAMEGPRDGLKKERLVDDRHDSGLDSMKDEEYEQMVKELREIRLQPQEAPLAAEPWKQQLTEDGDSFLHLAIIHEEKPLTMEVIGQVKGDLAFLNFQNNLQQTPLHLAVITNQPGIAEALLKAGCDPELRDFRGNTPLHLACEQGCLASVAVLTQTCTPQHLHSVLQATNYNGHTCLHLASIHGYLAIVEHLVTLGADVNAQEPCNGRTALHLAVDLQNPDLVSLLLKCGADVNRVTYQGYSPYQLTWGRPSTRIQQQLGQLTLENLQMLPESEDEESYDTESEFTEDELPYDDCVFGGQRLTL
# [4] = target: MAP kinase p38 (Mus musculus) (UniProt P47811+O08911+Q9WUI1+Q9Z1B7); test: Inhibition of M-CSF/RANKL-induced p38 phosphorylation in mouse BMMC at 5 ug/ml preincubated with M-CSF for 6 mins followed by RANKL addition measured after 5 mins by Western blot method
# [5] = species on record: Mus musculus; test: Inhibition of M-CSF/RANKL-induced ERK phosphorylation in mouse BMMC at 5 ug/ml preincubated with M-CSF for 6 mins followed by RANKL addition measured after 5 mins by Western blot method
# [6] = system: BMMC; test: Inhibition of M-CSF/RANKL-induced osteoclast differentiation in mouse BMMC at 5 to 10 ug/ml after 4 days by TRAP staining method; format: functional, cell-based
Compound,inhibition [1],inhibition [2],Activity [3],inhibition [4],inhibition [5],inhibition [6]
CC(=O)/C=C/c1c(CO)cc(O)c2c1O[C@]1(C2)[C@H](C)CC[C@H]2C(C)(C)[C@H](O)CC[C@@]21C,Dose-dependent effect,Active,inactive,Active,Active,
C[C@@H]1CC[C@H]2C(C)(C)[C@H](O)CC[C@]2(C)[C@@]12Cc1c(O)cc3c(c1O2)C(=O)OC3,,,,,,inactive
